# Results taken from patent publication US7780997B2, “Pharmaceutically active extracts of vitex leucoxylon, a process of extracting the same and a method of treating diabetes and inflammatory diseases therewith” (Laila Impex, priority 2005, dated 2010).
# Legend:
# [1] = tested on: Albino wistar rats; assay: Hypoglycemic activity: inhibition of sucrose-induced raise in serum glucose levels (SGL); type: in vivo, rat; settings: for Increased SGL (mean ± SE): 20 mL/kg of 20% sucrose after 30 min, blood one hour after treatment, rats; for % of inhibition (increase in serum glucose levels vs control): sucrose-loaded rats
# Method: Hypoglycemic activity: Hypoglycemic activity was tested by the inhibition of sucrose-induced raise in serum glucose levels (SGL), by the V. leucoxylon extracts in Albino wistar rats. The procedure involves fasting the rats for overnight at ad libitum water, numbered weighed and randomly divided into groups of three animals each. Prior to treatment blood samples were drawn from sinus orbital plexus of all animals using heparin coated glass capillaries under mild ether anesthesia. The blood samples were tested for serum glucose levels using enzymatic GOD/POD method. Optical densities were measured at 500 nm, SGL was calculated as follows. SGL=(test OD/Standard OD)×100 and the results were expressed in mg/dL. All the groups were treated orally with corresponding test substances, standard, vehicle (5% gum acacia). After 30 minutes, all animals were given 20 mL/kg of 20% sucrose solution orally using gastric tube. One hour after treatment, blood samples were drawn again under mild ether anesthesia and tested for serum glucose levels in a similar procedure as described above for initial serum glucose estimation. The data was subjected to statistical treatment using t-test and inhibitory rate was calculated by comparing mean increase in serum glucose levels of control and red groups.
# [2] = tested on: Albino wistar rats; assay: Anti-inflammatory activity (Carrageenin induced paw edema method); type: in vivo; settings: Rattus norvegicus, oral dose 25 mg/Kg, 3 h after carrageenin
# Method: Anti-inflammatory activity (Carrageenin induced paw edema method): Prior to the experiment all the animals (Albino wistar rats of either sex weighing between 180-300 g) fasted at ad libitum water and were weighed, numbered and randomly divided into groups, each containing 3 animals. Initial paw volumes were measured using plethesmometer and noted. All the groups were treated with corresponding test substance orally using gastric tube. Control group was treated with 10 mL/Kg vehicle (0.5%, carboxymethyl cellulose sodium salt). After 30 minutes, all the animals were injected subcutaneously at subplantar region of left hind paw 1% carrageenin 0.1 mL using hypodermic needle. All the animals were administered water 20 mL/Kg body weight and kept devoid of water for 3 h (maintained uniform hydration). After 3 h, paw volumes of all the animals were measured twice and average volume from two measurements were recorded. The % of inhibition of paw edema was calculated by comparing paw edema of test substance treated groups with that of control groups.
structure (smiles),measurement,setting,value
C[C@H]1[C@H](C)CC[C@]2(C(=O)O)CC[C@]3(C)C(=CC[C@@H]4[C@@]5(C)C[C@@H](O)[C@H](O)C(C)(C)[C@@H]5CC[C@]43C)[C@H]12 [Corosolic acid],Increased SGL (mean ± SE),[1]; oral dose 1 mg/Kg,27.72 ± 3.27 mg/dL
same,% of inhibition (increase in serum glucose levels vs control),[1]; oral dose 1 mg/Kg,9.78%
COc1ccc(Cl)cc1C(=O)NCCc1ccc(S(=O)(=O)NC(=O)NC2CCCCC2)cc1 [Glibenclamide],Increased SGL (mean ± SE),[1]; oral dose 25 mg/Kg,6.12 ± 4.32 mg/dL
same,% of inhibition (increase in serum glucose levels vs control),[1]; oral dose 25 mg/Kg,80.0%
O=C(O)Cc1ccccc1Nc1c(Cl)cccc1Cl [Diclofenac sodium],inhibition at 25 mg/kg,[2],63.1%
